Source: PMC6268188, “Comparative Studies of the (Anti) Mutagenicity of Baccharis dracunculifolia and Artepillin C by the Bacterial Reverse Mutation Test” (Molecules, 2012)
Several values for one entry are separate records, joined by “and”; a condition that tells them apart may be missing. Equal values may be shown once. Read-outs that look alike come from different tables or passages of the source.

What was measured:
[1] = test system: S. typhimurium TA100
[2] = test system: S. typhimurium TA102
[3] = test system: mouse micronucleus and comet; set-up: method as in PMID 21259290; details: mouse micronucleus and comet assays; cited from earlier work
[4] = test system: S. typhimurium TA97a
[5] = test system: S. typhimurium TA100; remark: listed apart in the source
[6] = 2.75 µg/plate + SA 1.25 μg/plate, TA 100, − S9
[7] = 5.49 µg/plate + AFB1 0.5 μg/plate, TA 100, + S9
[8] = 5.49 µg/plate + SA 1.25 μg/plate, TA 100, − S9
[9] = […] + SA 1.25 μg/plate, TA 100, − S9
[10] = 0.69 µg/plate + AA 1.25 μg/plate, TA 97a, + S9
[11] = 0.69 µg/plate + NOPD 10.0 μg/plate, TA 97a, − S9
[12] = 1.37 µg/plate + AA 1.25 μg/plate, TA 97a, + S9
[13] = 1.37 µg/plate + NOPD 10.0 μg/plate, TA 97a, − S9
[14] = 2.75 µg/plate + AA 1.25 μg/plate, TA 97a, + S9
[15] = 2.75 µg/plate + NOPD 10.0 μg/plate, TA 97a, − S9
[16] = 5.49 µg/plate + AA 1.25 μg/plate, TA 97a, + S9
[17] = 5.49 µg/plate + NOPD 10.0 μg/plate, TA 97a, − S9
[18] = […] + AA 1.25 μg/plate, TA 97a, + S9
[19] = […] + NOPD 10.0 μg/plate, TA 97a, − S9

SMILES: CC(C)=CCc1cc(/C=C/C(=O)O)cc(CC=C(C)C)c1O [ArtC, 3-{4-hydroxy-3,5-di(3-methyl-2-butenyl)phenyl}-2(E)-propenoic acid]
- % inhibition [1, 6]: 17%
- Number of revertants (M ± SD)/ plate [1, 6]: 1813 ± 24 revertants/plate
- antimutagenic effect class [1, 6]: * (no antimutagenic effect (< 25% inhibition))
- % inhibition [1, 7]: 26%
- Number of revertants (M ± SD)/ plate [1, 7]: 1600 ± 38 revertants/plate
- % inhibition [1, 8]: 21%
- Number of revertants (M ± SD)/ plate [1, 8]: 1727 ± 39 revertants/plate
- antimutagenic effect class [1, 8]: * (no antimutagenic effect (< 25% inhibition))
- inhibition of AFB1-induced mutation (text; number = highest observed percent inhibition) ([1]; TA100, with metabolic activation, AFB1): did inhibit mutation
- % inhibition [1, 9]: 14%
- antimutagenic effect class [1, 9]: * (no antimutagenic effect (< 25% inhibition))
- MI (mutagenicity index) ([2]; 0.69 µg/plate, TA 102, + S9): 0.9
- Number of revertants (M ± SD)/ plate ([2]; 0.69 µg/plate, TA 102, + S9): 204 ± 4 revertants/plate
- MI (mutagenicity index) ([2]; 0.69 µg/plate, TA 102, − S9): 0.9
- Number of revertants (M ± SD)/ plate ([2]; 0.69 µg/plate, TA 102, − S9): 204 ± 4 revertants/plate
- MI (mutagenicity index) ([2]; 1.37 µg/plate, TA 102, + S9): 1.0
- Number of revertants (M ± SD)/ plate ([2]; 1.37 µg/plate, TA 102, + S9): 213 ± 3 revertants/plate
- MI (mutagenicity index) ([2]; 1.37 µg/plate, TA 102, − S9): 1.0
- Number of revertants (M ± SD)/ plate ([2]; 1.37 µg/plate, TA 102, − S9): 213 ± 3 revertants/plate
- MI (mutagenicity index) ([2]; 2.75 µg/plate, TA 102, + S9): 0.9
- Number of revertants (M ± SD)/ plate ([2]; 2.75 µg/plate, TA 102, + S9): 187 ± 5 revertants/plate
- MI (mutagenicity index) ([2]; 2.75 µg/plate, TA 102, − S9): 0.9
- Number of revertants (M ± SD)/ plate ([2]; 2.75 µg/plate, TA 102, − S9): 187 ± 5 revertants/plate
- MI (mutagenicity index) ([2]; 5.49 µg/plate, TA 102, + S9): 1.0
- Number of revertants (M ± SD)/ plate ([2]; 5.49 µg/plate, TA 102, + S9): 215 ± 5 revertants/plate
- MI (mutagenicity index) ([2]; 5.49 µg/plate, TA 102, − S9): 1.0
- Number of revertants (M ± SD)/ plate ([2]; 5.49 µg/plate, TA 102, − S9): 215 ± 5 revertants/plate
- MI (mutagenicity index) ([2]; Salmonella typhimurium): 203 ± 6 (0.9)
- Number of revertants (M ± SD)/ plate ([2]; Salmonella typhimurium): 203 ± 6 (0.9) revertants/plate
- genotoxic potential [3]: not genotoxic
- Number of revertants (M ± SD)/ plate [4]: 891 ± 17 revertants/plate and 1602 ± 17 revertants/plate
- % inhibition [4, 10]: 14%
- Number of revertants (M ± SD)/ plate [4, 10]: 1603 ± 26 revertants/plate
- antimutagenic effect class [4, 10]: * (no antimutagenic effect (< 25% inhibition))
- % inhibition [4, 11]: 21%
- Number of revertants (M ± SD)/ plate [4, 11]: 876 ± 8 revertants/plate
- antimutagenic effect class [4, 11]: * (no antimutagenic effect (< 25% inhibition))
- % inhibition [4, 12]: 13%
- Number of revertants (M ± SD)/ plate [4, 12]: 1617 ± 16 revertants/plate
- antimutagenic effect class [4, 12]: * (no antimutagenic effect (< 25% inhibition))
- % inhibition [4, 13]: 22%
- Number of revertants (M ± SD)/ plate [4, 13]: 862 ± 14 revertants/plate
- antimutagenic effect class [4, 13]: * (no antimutagenic effect (< 25% inhibition))
- % inhibition [4, 14]: 10%
- Number of revertants (M ± SD)/ plate [4, 14]: 1669 ± 19 revertants/plate
- antimutagenic effect class [4, 14]: * (no antimutagenic effect (< 25% inhibition))
- % inhibition [4, 15]: 20%
- Number of revertants (M ± SD)/ plate [4, 15]: 885 ± 19 revertants/plate
- antimutagenic effect class [4, 15]: * (no antimutagenic effect (< 25% inhibition))
- % inhibition [4, 16]: 13%
- Number of revertants (M ± SD)/ plate [4, 16]: 1620 ± 21 revertants/plate
- antimutagenic effect class [4, 16]: * (no antimutagenic effect (< 25% inhibition))
- % inhibition [4, 17]: 16%
- Number of revertants (M ± SD)/ plate [4, 17]: 933 ± 7 revertants/plate
- antimutagenic effect class [4, 17]: * (no antimutagenic effect (< 25% inhibition))
- reduction of NOPD mutagenicity ([4]; TA97a, NOPD): no antimutagenic activity
- reduction of AA mutagenicity ([4]; TA97a, with metabolic activation, AA): no antimutagenic activity
- % inhibition [4, 18]: 14%
- antimutagenic effect class [4, 18]: * (no antimutagenic effect (< 25% inhibition))
- % inhibition [4, 19]: 19%
- antimutagenic effect class [4, 19]: * (no antimutagenic effect (< 25% inhibition))
- MI (mutagenicity index) ([5]; 0.69 µg/plate, TA 100, + S9): 1.0
- Number of revertants (M ± SD)/ plate ([5]; 0.69 µg/plate, TA 100, + S9): 171 ± 1 revertants/plate
- MI (mutagenicity index) ([5]; 0.69 µg/plate, TA 100, − S9): 1.2
- Number of revertants (M ± SD)/ plate ([5]; 0.69 µg/plate, TA 100, − S9): 179 ± 4 revertants/plate
- MI (mutagenicity index) ([5]; 1.37 µg/plate, TA 100, + S9): 1.0
- Number of revertants (M ± SD)/ plate ([5]; 1.37 µg/plate, TA 100, + S9): 171 ± 2 revertants/plate
- MI (mutagenicity index) ([5]; 1.37 µg/plate, TA 100, − S9): 1.1
- Number of revertants (M ± SD)/ plate ([5]; 1.37 µg/plate, TA 100, − S9): 174 ± 4 revertants/plate
- MI (mutagenicity index) ([5]; 2.75 µg/plate, TA 100, + S9): 0.9
- Number of revertants (M ± SD)/ plate ([5]; 2.75 µg/plate, TA 100, + S9): 144 ± 2 revertants/plate
- MI (mutagenicity index) ([5]; 2.75 µg/plate, TA 100, − S9): 1.1
- Number of revertants (M ± SD)/ plate ([5]; 2.75 µg/plate, TA 100, − S9): 169 ± 6 revertants/plate
- MI (mutagenicity index) ([5]; 5.49 µg/plate, TA 100, + S9): 0.9
- Number of revertants (M ± SD)/ plate ([5]; 5.49 µg/plate, TA 100, + S9): 153 ± 2 revertants/plate
- MI (mutagenicity index) ([5]; 5.49 µg/plate, TA 100, − S9): 1.0
- Number of revertants (M ± SD)/ plate ([5]; 5.49 µg/plate, TA 100, − S9): 158 ± 7 revertants/plate
